Experimental data published in US6063788A, “Bicyclic-fused pyridines” (Bayer Aktiengesellschaft, priority 1996, dated 2000).

Tests used:
transgenic hCETP mice = assay: In vivo activity in transgenic hCETP mice; conditions: 100 ppm in the feed; one week
Method: In Vivo Activity in Transgenic hCETP Mice
Transgenic mice from in-house breeding (Dinchuck, Hart, Gonzalez, Karmann, Schmidt, Wirak; BBA (1995), 1295, 301) were administered the substances to be tested in the feed. Before the start of the experiment, blood was taken retro-orbitally from the mice in order to determine cholesterol and triglycerides in the serum. The serum was obtained as described above for hamsters by incubation at 4° C. overnight and subsequent centrifugation at 6000×g. After one week, blood was again taken from the mice in order to determine lipoproteins and triglycerides. The change in the parameters measured is expressed as a percentage change compared with the starting value.

[1] = target: T1, cholesterol ester transfer protein (CETP) (Homo sapiens, UniProt P11597); assay: CETP inhibition testing (transfer of 3H-cholesterol ester from HDL to biotinylated LDL); format: biochemical; conditions: substance concentration at which transfer is reduced by half; 18 h at 37° C.
T1 construct: CETP is obtained from human plasma in partially purified form; from tissue; host or cells: human plasma (partially purified by centrifugation, phenyl-Sepharose, CM-Sepharose, Mono Q)
T1 sequence (P11597 18-493): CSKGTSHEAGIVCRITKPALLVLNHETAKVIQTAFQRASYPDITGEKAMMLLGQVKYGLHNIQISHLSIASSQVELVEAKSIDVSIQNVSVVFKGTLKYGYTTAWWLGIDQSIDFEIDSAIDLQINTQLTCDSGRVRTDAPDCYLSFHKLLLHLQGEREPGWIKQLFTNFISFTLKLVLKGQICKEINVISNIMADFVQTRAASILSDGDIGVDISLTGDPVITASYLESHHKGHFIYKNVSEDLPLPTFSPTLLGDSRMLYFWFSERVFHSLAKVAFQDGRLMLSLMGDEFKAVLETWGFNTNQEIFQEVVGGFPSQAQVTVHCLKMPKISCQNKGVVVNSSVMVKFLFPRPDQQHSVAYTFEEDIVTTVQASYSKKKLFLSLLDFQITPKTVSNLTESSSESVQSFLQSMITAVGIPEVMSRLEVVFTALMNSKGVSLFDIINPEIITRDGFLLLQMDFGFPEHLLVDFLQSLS
Method: CETP is obtained from human plasma in partially purified form by differential centrifugation and column chromatography and used for the test. To this end, human plasma is adjusted to a density of 1.21 g per ml using NaBr and centrifuged at 4° C. for 18 h at 50,000 rpm. The bottom fraction (d>1.21 g/ml) is applied to a Sephadex®phenyl-sepharose 4B (Pharmacia) column, washed with 0.15 M NaCl/0.001 M trisHCl pH 7.4 and then eluted with distilled water. The CETP-active fractions are pooled, dialysed against 50 mM Na acetate pH 4.5 and applied to a CM-Sepharose® (Pharmacia) column. The column is then eluted using a linear gradient (0-1 M NaCl). The pooled CETP fractions are dialysed against 10 mM tris HCl pH 7.4 and then further purified by chromatography on a Mono Q® column (Pharmacia).
Obtainment of radiolabelled HDL
50 ml of fresh human EDTA plasma are adjusted to a density of 1.12 using NaBr and centrifuged at 50,000 rpm for 18 h at 4° C. in a Ty 65 rotor. The upper phase is used to obtain cold LDL. The lower phase is dialysed against 3×4 l of PDB buffer (10 mM tris/HCl pH 7.4, […], 1 mM EDTA, 0.02% NaN3). 20 μl of ^3 H-cholesterol (Dupont NET-725; 1 μC/μl dissolved in ethanol!) are then added per 10 ml of retentate volume and the mixture is incubated under N2 at 37° C. for 72 h. […]
To test the CETP activity, the transfer of ^3 H-cholesterol ester from human HD lipoproteins to biotinylated LD lipoproteins is measured.
The reaction is ended by addition of streptavidin-SPA®beads (Amersham) and the transferred radioactivity is determined directly in a liquid scintillation counter.
In the test mixture, 10 μl of HDL-^3 H-cholesterol ester (~50,000 cpm) are incubated at 37° C. for 18 h with 10 μl of biotin-LDL (Amersham) in 50 mM Hepes/0.15 M NaCl/0.1% bovine serum albumin/0.05% NaN3 pH 7.4 with 10 μl of CETP (1 mg/ml) and 3 μl of solution of the substance to be tested (dissolved in 10% DMSO/1% RSA). 200 μl of the SPA-streptavidin bead solution (TRKQ 7005) are then added, the mixture is incubated further for 1 h with shaking and then measured in the scintillation counter. […]

CETP = assay: Ex vivo activity: CETP activity in serum of treated hamsters; parameters: species or system Syrian golden hamsters; conditions: hamster serum; for ED50 (ex vivo activity): up to 24 hours after administration
Method: Ex Vivo Activity of the Compounds According to the Invention
Syrian golden hamsters from in-house breeding are anaesthetized after fasting for 24 hours (0.8 mg/kg of atropine, 0.8 mg/kg of Ketavet® s.c., 30' later 50 mg/kg of Nembutal i.p.). The jugular vein is then exposed and cannulated. The test substance is dissolved in a suitable solvent (as a rule Adalat placebo solution: 60 g of glycerol, 100 ml of H2 O, PEG-400 to 1000 ml) and administered to the animals via a PE catheter inserted in the jugular vein. The control animals receive the same volume of solvent without test substance. The vein is then tied off and the wound is closed. The administration of the test substances can also be carried out p.o., by orally administering the substances dissolved in DMSO and suspended in 0.5% Tylose by means of a stomach tube. The control animals receive identical volumes of solvent without test substance.
After various times--up to 24 hours after administration--blood (about 250 μl) is taken from the animals by puncture of the retro-orbital venous plexus. Clotting is ended by incubation at 4° C. overnight, then centrifugation is carried out at 6000×g for 10 minutes. In the serum thus obtained, CETP activity is determined by the modified CETP test. As for the CETP test described above, the transfer of ^3 H-cholesterol ester from HD lipoproteins to biotinylated LD lipoproteins is measured.
The reaction is ended by addition of Streptavidin-SPA® beads (Amersham) and the transferred radioactivity is determined directly in the liquid scintillation counter.
The test mixture is carried out as described under "CETP test". For the testing of the serum, only 10 μl of CETP are replaced by 10 μl of the corresponding serum samples. As controls, corresponding incubations with sera of untreated animals are used.
The activity transferred in the control mixtures with control sera is rated as 100% transfer. The substance concentration at which this transfer is reduced to a half is indicated as the ED50 value.

HDL cholesterol = assay: In vivo activity: oral action on lipoproteins (HDL rise) in hamsters; parameters: species or system Syrian golden hamsters; conditions: Dose 2 × 10 mg/kg, hamster, up to 24 hours
Method: In Vivo Activity of the Compounds According to the Invention
In experiments to determine the oral action on lipoproteins and triglycerides, test substance dissolved in DMSO and 0.5% Tylose suspended by means of a stomach tube are administered orally to Syrian golden hamsters from in-house breeding. To determine the CETP activity, blood (about 250 μl) is taken by retro-orbital puncture before the start of the experiment. The test substances are then administered orally by means of a stomach tube. The control animals receive identical volumes of solvents without test substance. The feed is then withdrawn from the animals and blood is taken at various times--up to 24 hours after substance administration--by puncture of the retro-orbital venous plexus.
Clotting is ended by incubation at 4° C. overnight, then centrifugation at 6000×g is carried out for 10 minutes. In the serum thus obtained, the content of cholesterol and triglycerides is determined with the aid of modified commercially available enzyme tests (cholesterol enzymatic 14366 Merck, triglycerides 14364 Merck). Serum is suitably diluted using physiological saline solution.
100 μl of serum dilution are mixed with 100 μl of […] in 96-hole plates and incubated at room temperature for 10 minutes. The optical density is then determined at a wavelength of 492 nm using an automatic plate-reading apparatus. The triglyceride or cholesterol concentration contained in the samples is determined with the aid of a standard curve measured in parallel.
The determination of the content of HDL cholesterol is carried out according to the manufacturer's instructions after precipitation of the ApoB-containing lipoproteins by means of a reagent mixture (Sigma 352-4 HDL cholesterol reagent).

| IC50 [1] [nM] | Structure (SMILES) | % Inhibition at 10 mg/kg (CETP) [%] | ED50 (ex vivo activity) (CETP) [mg/kg] | % HDL rise (HDL cholesterol) [%] | further results |
| --- | --- | --- | --- | --- | --- |
| 60 | CC(C)c1nc2c(c(-c3ccc(F)cc3)c1C(F)c1ccc(C(F)(F)F)cc1)C(O)c1ccccc1-2 (stereo not drawn) [Example 14] | 64.0 | < 10 | – | HDL (percentage change compared with the starting value) (transgenic hCETP mice): 22.0%; LDL (percentage change compared with the starting value) (transgenic hCETP mice): -10.5%; Triglyceride (percentage change compared with the starting value) (transgenic hCETP mice): -9.7% |
| – | O=C(c1ccc(C(F)(F)F)cc1)c1c(C2CCCC2)nc2c(c1-c1ccc(F)cc1)C(O)c1ccccc1-2 (stereo not drawn) [Example 19] | 46.0 | > 10 | 17.1 | – |
| – | O=C1c2cccc(F)c2-c2nc(C3CCCC3)c(C(F)c3ccc(C(F)(F)F)cc3)c(-c3ccc(F)cc3)c21 (stereo not drawn) [Example 29] | 17.2 | > 10 | – | – |
| – | OC1c2ccccc2-c2nc(C3CCCC3)c(Cc3ccc(C(F)(F)F)cc3)c(-c3ccc(F)cc3)c21 (stereo not drawn) [Example 20] | – | – | 11.14 | – |
| 240 | OC(c1ccc(Cl)c(C(F)(F)F)c1)c1c(C2CCCC2)nc2c(c1-c1ccc(F)cc1)C(O)c1ccccc1-2 (stereo not drawn) [Example 22] | – | – | – | – |
| 300 | CC(C)c1nc2c(c(-c3ccc(F)cc3)c1C(F)c1ccc(C(F)(F)F)cc1)C(O)c1cc(Cl)c(Cl)cc1-2 (stereo not drawn) [Example 27] | – | – | – | – |
| – | OC1c2ccccc2-c2nc(C3CCCC3)c(C(F)c3ccc(C(F)(F)F)cc3)c(-c3ccc(F)cc3)c21 (stereo not drawn) [Example 18] | – | – | 3.3 | – |
